Experimental data reported in ChEMBL document CHEMBL1201862, “PubChem BioAssay data set” (2004).
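Values below derive from 48-hour exposures of cells grown in 96-well plates, with endpoints linearly interpolated between the two concentrations bracketing the appropriate inhibition level. Abbreviation: GI50, concentration required for 50% inhibition of growth.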 Active and inactive are the calls of the source. Rule as the data show it: active = GI50 up to about 1.1 µM and inactive = higher.

Legend:
Test in all cases: NCI-60 cell line screen, 48 h
[1] = test system: A549
[2] = test system: A498
[3] = test system: U-251
[4] = test system: SF-295
[5] = test system: SK-MEL-28
[6] = test system: SF-539
[7] = test system: HCC 2998
[8] = test system: HOP-92
[9] = test system: MOLT-4
[10] = test system: SNB-19
[11] = test system: HT-29
[12] = test system: HCT-116
[13] = test system: SR
[14] = test system: NCI-H522
[15] = test system: NCI-H460
[16] = test system: RXF 393

Measured: GI50

COc1ccc(N2C(=O)C3CC(c4ccc(C)cc4)c4c([nH]c5ccccc45)C3C2=O)cc1 (stereo not drawn)
inactive: [1] 12.2 µM | [2] 30.2 µM | [3] 10 µM | [4] > 48.8 µM | [5] > 49.9 µM | [6] 23.7 µM | [7] 52.7 µM | [8] 24 µM | [9] 21 µM | [10] 12.4 µM | [11] 16.3 µM | [12] 4.43 µM | [13] 2.02 µM | [14] 19.5 µM | [15] 4.9 µM

Cc1ccccc1N(CCC#N)C1=NN(C(=O)CC(=O)Nc2ccccc2)C(c2ccccc2)C1 (stereo not drawn)
inactive: [1] > 100 µM | [3] > 100 µM | [4] > 100 µM | [5] > 100 µM | [6] > 100 µM | [7] > 100 µM | [8] > 100 µM | [9] > 100 µM | [10] > 100 µM | [11] > 100 µM | [16] > 100 µM | [12] > 100 µM | [13] 44.1 µM | [14] > 100 µM | [15] > 100 µM

COc1cc2oc(-c3ccccc3)cc(=O)c2c(O)c1C
inactive: [1] > 100 µM | [2] > 100 µM | [3] > 100 µM | [4] > 100 µM | [5] > 100 µM | [6] > 100 µM | [7] > 100 µM | [8] 27.4 µM | [9] > 100 µM | [11] > 100 µM | [12] > 100 µM | [13] > 100 µM | [14] > 100 µM | [15] > 100 µM

CCCCOC(=O)C1C(c2ccc(Cl)cc2)NC(c2ccc(Cl)cc2)C(C(=O)OCCCC)S1(=O)=O (stereo not drawn)
inactive: [1] > 100 µM | [2] > 100 µM | [3] > 100 µM | [4] > 100 µM | [5] > 100 µM | [6] > 100 µM | [7] > 100 µM | [8] > 100 µM | [9] > 100 µM | [10] > 100 µM | [11] > 100 µM | [16] > 100 µM | [13] > 100 µM | [14] > 100 µM | [15] > 100 µM

c1ccc2cc(C3NCCc4nc[nH]c43)ccc2c1 (stereo not drawn)
inactive: [1] > 100 µM | [2] 25.9 µM | [3] 90.8 µM | [4] 68.5 µM | [5] > 100 µM | [6] 89.1 µM | [7] 59.6 µM | [8] 49.3 µM | [9] 25.1 µM | [11] 41.7 µM | [16] 61.1 µM | [12] 67.3 µM | [13] 54.2 µM | [14] 34 µM | [15] 52 µM

CCc1ccccc1NC(=O)C1=C(C)NC(C)=C(C(=O)Nc2c(CC)cccc2CC)C1c1ccc2c(c1)OCO2 (stereo not drawn)
inactive: [1] 17.6 µM | [3] 14.6 µM | [4] 20.3 µM | [5] 18.1 µM | [6] 21.2 µM | [7] 16.5 µM | [8] 12.7 µM | [9] 19.1 µM | [10] 24.9 µM | [11] 18 µM | [16] 12.4 µM | [12] 16.8 µM | [14] 16.2 µM | [15] 16.6 µM

Cc1ccc(-c2cc(=O)c3cc(C)c(C)c(C(=O)O)c3o2)cc1
inactive: [1] > 100 µM | [2] > 100 µM | [3] > 100 µM | [4] > 100 µM | [5] > 100 µM | [6] 29.9 µM | [7] > 100 µM | [8] > 100 µM | [9] > 100 µM | [10] > 100 µM | [11] > 100 µM | [12] > 100 µM | [14] 24.3 µM | [15] > 100 µM

NC(=O)N/N=C(/c1nc2ccc([N+](=O)[O-])cc2nc1O)C(O)c1ccco1 (stereo not drawn)
inactive: [1] 93.8 µM | [3] 54.2 µM | [4] 80.7 µM | [5] 96.6 µM | [6] 15.8 µM | [7] 31 µM | [8] > 100 µM | [9] 94.6 µM | [10] > 100 µM | [11] 46.2 µM | [16] > 100 µM | [12] > 100 µM | [13] 57.1 µM | [14] 14.7 µM | [15] 59.6 µM

O=C(c1ccccc1)c1c(CNCc2ccccc2)n(C(=O)c2ccccc2)c2ccccc12
inactive: [1] 22.4 µM | [3] 20.8 µM | [4] 9.51 µM | [5] > 100 µM | [6] 69.3 µM | [7] 86.9 µM | [8] 13.7 µM | [9] 7.43 µM | [10] 22.8 µM | [11] 24.6 µM | [12] 8.67 µM | [13] 6.58 µM | [14] 4.52 µM | [15] 14.5 µM

Cc1cc2c(C)nn(Cc3ccccc3Cl)c2c(C#N)c1C
inactive: [1] > 100 µM | [3] > 100 µM | [4] > 100 µM | [5] > 100 µM | [6] > 100 µM | [7] > 100 µM | [8] > 100 µM | [9] > 100 µM | [10] > 100 µM | [11] > 100 µM | [16] > 100 µM | [12] > 100 µM | [13] > 100 µM | [15] > 100 µM

CCOC1=C2N=C(C(CC)c3ccccc3F)N=C2C(=O)c2ccccc21 (stereo not drawn)
inactive: [1] > 100 µM | [3] 8.45 µM | [4] > 100 µM | [5] > 100 µM | [6] > 100 µM | [7] > 100 µM | [8] 95.7 µM | [9] 24 µM | [10] > 100 µM | [11] > 100 µM | [16] 2.98 µM | [12] > 100 µM | [13] > 100 µM | [14] > 100 µM | [15] > 100 µM

NCC(NC(=O)OCc1ccccc1)C(=O)O (stereo not drawn)
inactive: [1] > 50 µM | [2] > 50 µM | [3] > 50 µM | [4] > 50 µM | [5] > 50 µM | [6] > 50 µM | [7] > 50 µM | [8] > 50 µM | [9] > 50 µM | [10] > 50 µM | [11] > 50 µM | [12] > 50 µM | [14] > 50 µM | [15] > 50 µM

C/C=C/C#CC#C/C=C/C=C/C(O)CCO (stereo not drawn)
inactive: [1] > 23.1 µM | [3] > 23.1 µM | [4] > 18.7 µM | [5] > 23.1 µM | [6] > 23.1 µM | [7] > 23.1 µM | [8] > 23.1 µM | [9] 17.5 µM | [10] > 23.1 µM | [11] > 23.1 µM | [16] > 23.1 µM | [12] > 23.1 µM | [13] > 23.1 µM | [14] > 23.1 µM | [15] > 23.1 µM

CC(=O)Nc1ccc(C(=O)NN2C(=O)C(Cl)C2c2ccccc2O)cc1 (stereo not drawn)
inactive: [1] > 100 µM | [2] > 100 µM | [3] 15.8 µM | [4] 29.1 µM | [5] > 100 µM | [6] 42.1 µM | [8] 47.6 µM | [10] 36.6 µM | [11] 69 µM | [16] 24.1 µM | [12] > 100 µM | [14] 36.2 µM | [15] 6.81 µM

COc1c(O)ccc(/C=N/NC(=S)NCOCCOC(C)=O)c1OC
inactive: [1] > 100 µM | [2] > 100 µM | [3] > 100 µM | [4] > 100 µM | [5] > 100 µM | [6] > 100 µM | [7] > 100 µM | [8] > 100 µM | [10] > 100 µM | [11] > 100 µM | [16] > 100 µM | [12] > 100 µM | [14] > 100 µM | [15] > 100 µM

Cc1ccccc1C1OC(=O)c2ccccc21 (stereo not drawn)
inactive: [1] > 100 µM | [2] > 100 µM | [3] > 100 µM | [5] > 100 µM | [6] > 100 µM | [7] > 100 µM | [9] > 100 µM | [10] > 100 µM | [11] > 100 µM | [16] > 100 µM | [12] > 100 µM | [13] > 100 µM | [14] > 100 µM | [15] > 100 µM

Cc1ccc(/C=C2\CCCC(C(NO)c3ccc(C)cc3)C2=NO)cc1 (stereo not drawn)
inactive: [1] 36.1 µM | [2] 49.8 µM | [3] 55.2 µM | [5] 16.1 µM | [6] 39.6 µM | [7] 16.8 µM | [9] 19.1 µM | [10] 83.6 µM | [11] 19.5 µM | [16] 20.6 µM | [12] 45.6 µM | [14] 28.5 µM | [15] 24.7 µM

CN1NC2(CCCCC2)ON=C1c1ccccc1
inactive: [1] > 100 µM | [2] > 100 µM | [3] > 100 µM | [4] > 100 µM | [5] > 100 µM | [6] > 100 µM | [8] > 100 µM | [9] > 100 µM | [10] > 100 µM | [11] > 100 µM | [16] > 100 µM | [12] > 100 µM | [13] > 100 µM | [14] > 100 µM | [15] > 100 µM

CC(=O)OC1CC2(C)OC(Cc3ccccc32)O1 (stereo not drawn)
inactive: [1] > 100 µM | [3] > 100 µM | [4] > 100 µM | [5] > 100 µM | [6] > 100 µM | [7] > 100 µM | [8] 53.6 µM | [9] > 100 µM | [10] > 100 µM | [11] > 100 µM | [16] > 100 µM | [12] > 100 µM | [13] > 100 µM | [14] > 100 µM | [15] > 100 µM
